Patent publication US9227971B2, “Pyrazolo[1,5-a]pyrimidine compounds as mTOR inhibitors” (Merck Sharp & Dohme Corp., priority 2010, dated 2016)
Read-outs that look alike come from different tables or passages of the source.

Key:
[1] = tested on: phosphorylated AKT Ser473 (pAKT S473), mTORC2 activity, PC3 cells; assay: mTOR target engagement assay, immunofluorescent cell-based, pAKT S473 readout (mTORC2 activity)
How it was run: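 After blocking, cells were stained overnight at 4 °C with anti-pAKT S473 antibody, then a fluorescent secondary; inhibition was read as reduced fluorescence intensity.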

[2] = tested on: phosphorylated 4E-BP1 Thr37/46 (p4E-BP1 Thr37/46), mTORC1 activity, PC3 cells; assay: mTOR target engagement assay, immunofluorescent cell-based, p4E-BP1 Thr37/46 readout (mTORC1 activity); conditions: read-out: p4E-BP1 Thr37/46 IC50
How it was run: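 Cell-based immunofluorescence in PC3 cells: serially diluted compounds (0.25% DMSO, 5% FBS) applied for ninety minutes at 37° C before fixation and overnight 4° C staining of p4E-BP1 Thr37/46. Untreated DMSO wells set maximal phosphorylation; IC50 obtained by logistic fitting.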

IC50 ([1]; PC3 cells) [nM] | IC50 ([2]; PC3 cells) [nM] | SMILES | IC50 ([1]; Homo sapiens, PC-3, PC3 cells) [nM] | IC50 ([2]; Homo sapiens, PC-3, PC3 cells) [nM]
– | – | CC(=O)c1c([C@@H]2C[C@H]3CC(O)[C@@H](C2)N3C(=O)CO)nc2c(-c3ccc(-c4ccccc4)nc3)cnn2c1N (stereo partly drawn) [Compound 8.35, 1-((1S,3R,5R)-3-(6-acetyl-7-amino-3-(6-phenylpyridin-3-yl)pyrazolo[1,5-a]pyrimidin-5-yl)-6-hydroxy-8-azabicyclo[3.2.1]octan-8-yl)-2-hydroxyethanone] | 1 to 100 | 1 to 100
– | – | CC(=O)c1c(C2CC3CS(=O)(=O)CC(C2)N3C(=O)c2nc[nH]n2)nc2c(-c3ccc(-c4ccccc4)nc3)cnn2c1N (stereo not drawn) [Compound 8.38, endo/exo-7-[6-acetyl-7-amino-3-(6-phenyl-3-pyridinyl)pyrazolo[1,5-a]pyrimidin-5-yl]-9-(4h-1,2,4-triazol-3-ylcarbonyl)-3-thia-9-azabicyclo[3.3.1]nonane, 3,3-dioxide] | 100 to 1000 | 100 to 1000
– | – | Nc1c(C2(O)CC2)c([C@@H]2C[C@H]3CC[C@@H](C2)N3C(=O)c2nc[nH]n2)nc2c(-c3ccc(-c4ccccc4)nc3)cnn12 [Compound 8.39] | 1000 to 10000 | 1000 to 10000
– | – | NC(=O)c1c([C@@H]2C[C@H]3CC[C@@H](C2)N3C(=O)c2nc[nH]n2)nc2c(-c3ccc(-c4ccccc4)nc3)cnn2c1N [Compound 8.40] | 1 to 100 | 1 to 100
– | – | CNc1c(S(C)(=O)=O)c([C@@H]2C[C@H]3CC[C@@H](C2)N3C(=O)c2nnc[nH]2)nc2c(-c3ccc(-c4ccccc4)nc3)cnn12 [Compound 8.41, ((1R,3s,5S)-3-(7-(methylamino)-6-(methylsulfonyl)-3-(6-phenylpyridin-3-yl)pyrazolo[1,5-a]pyrimidin-5-yl)-8-azabicyclo[3.2.1]octan-8-yl)(4H-1,2,4-triazol-3-yl)methanone] | 1 to 100 | 100 to 1000
– | – | CS(=O)(=O)c1c([C@@H]2C[C@H]3CC[C@@H](C2)N3C(=O)c2nnc[nH]2)nc2c(-c3ccc(CO)c(F)c3)cnn2c1N [Compound 8.42, ((1R,3s,5S)-3-(7-amino-3-(3-fluoro-4-(hydroxymethyl)phenyl)-6-(methylsulfonyl)pyrazolo[1,5-a]pyrimidin-5-yl)-8-azabicyclo[3.2.1]octan-8-yl)(4H-1,2,4-triazol-3-yl)methanone] | 1 to 100 | 1 to 100
– | – | CS(=O)(=O)c1c([C@@H]2C[C@H]3CC[C@@H](C2)N3C(=O)CO)nc2c(-c3ccc(CO)c(F)c3)cnn2c1N [Compound 8.43, 1-((1R,3s,5S)-3-(7-amino-3-(3-fluoro-4-(hydroxymethyl)phenyl)-6-(methylsulfonyl)pyrazolo[1,5-a]pyrimidin-5-yl)-8-azabicyclo[3.2.1]octan-8-yl)-2-hydroxyethanone] | 100 to 1000 | 100 to 1000
– | – | CS(=O)(=O)c1c([C@@H]2C[C@H]3CC[C@@H](C2)N3C(=O)c2nnc[nH]2)nc2c(-c3ccc(C4(N)CC4)c(F)c3)cnn2c1N [Compound 8.44, ((1R,3s,5S)-3-(7-amino-3-(4-(1-aminocyclopropyl)-3-fluorophenyl)-6-(methylsulfonyl)pyrazolo[1,5-a]pyrimidin-5-yl)-8-azabicyclo[3.2.1]octan-8-yl)(4H-1,2,4-triazol-3-yl)methanone] | 1000 to 10000 | 1000 to 10000
– | – | CCN/C(=N\CCCN(C)C)n1ncc(C(=O)N2[C@@H]3CC[C@H]2C[C@H](c2nc4c(-c5ccc(-c6ccccc6F)nc5)cnn4c(N)c2S(C)(=O)=O)C3)n1 [Compound 8.46, (E)-4-((1R,3s,5S)-3-(7-amino-3-(6-(2-fluorophenyl)pyridin-3-yl)-6-(methylsulfonyl)pyrazolo[1,5-a]pyrimidin-5-yl)-8-azabicyclo[3.2.1]octane-8-carbonyl)-N′-(3-(dimethylamino)propyl)-N-ethyl-2H-1,2,3-triazole-2-carboximidamide] | 1 to 100 | 100 to 1000
1 to 100 | 1 to 100 | CC(=O)c1c([C@@H]2C[C@H]3CC[C@@H](C2)N3C(=O)c2nnc[nH]2)nc2c(-c3ccc(NC4CC4)nc3)cnn2c1N [Compound 8.47, 1-(5-((1R,3s,5S)-8-(4H-1,2,4-triazole-3-carbonyl)-8-azabicyclo[3.2.1]octan-3-yl)-7-amino-3-(6-(cyclopropylamino)pyridin-3-yl)pyrazolo[1,5-a]pyrimidin-6-yl)ethanone] | – | –
– | – | CC(=O)c1c([C@@H]2C[C@H]3CC[C@@H](C2)N3C(=O)c2nnc[nH]2)nc2c(-c3ccc(N)nc3)cnn2c1N [Compound 8.48, 1-(5-((1R,3s,5S)-8-(4H-1,2,4-triazole-3-carbonyl)-8-azabicyclo[3.2.1]octan-3-yl)-7-amino-3-(6-aminopyridin-3-yl)pyrazolo[1,5-a]pyrimidin-6-yl)ethanone] | 1 to 100 | 1 to 100
1 to 100 | 1 to 100 | CC(=O)c1c([C@@H]2C[C@H]3CC[C@@H](C2)N3C(=O)c2nnc[nH]2)nc2c(-c3cnc(NC4CC4)nc3)cnn2c1N [Compound 8.49, 1-(5-((1R,3s,5S)-8-(4H-1,2,4-triazole-3-carbonyl)-8-azabicyclo[3.2.1]octan-3-yl)-7-amino-3-(2-(cyclopropylamino)pyrimidin-5-yl)pyrazolo[1,5-a]pyrimidin-6-yl)ethanone] | – | –
– | – | CCC(=O)NNc1ccc(-c2cnn3c(N)c(C(C)=O)c([C@@H]4C[C@H]5CC[C@@H](C4)N5C(=O)CO)nc23)cn1 [Compound 8.52, N′-(5-(6-acetyl-7-amino-5-((1R,3s,5S)-8-(2-hydroxyacetyl)-8-azabicyclo[3.2.1]octan-3-yl)pyrazolo[1,5-a]pyrimidin-3-yl)pyridin-2-yl)propionohydrazide] | 1000 to 10000 | > 10000
– | – | CS(=O)(=O)c1c([C@@H]2C[C@H]3CC[C@@H](C2)N3C(=O)c2nnc[nH]2)nc2c(-c3ccc(OC4CCC4)nc3)cnn2c1N [Compound 8.53, ((1R,3s,5S)-3-(7-amino-3-(6-cyclobutoxypyridin-3-yl)-6-(methylsulfonyl)pyrazolo[1,5-a]pyrimidin-5-yl)-8-azabicyclo[3.2.1]octan-8-yl)(4H-1,2,4-triazol-3-yl)methanone] | 1000 to 10000 | 1000 to 10000
– | – | CS(=O)(=O)c1c([C@@H]2C[C@H]3CC[C@@H](C2)N3C(=O)c2nnc[nH]2)nc2c(-c3ccc(OCC4CC4)nc3)cnn2c1N [Compound 8.54, ((1R,3s,5S)-3-(7-amino-3-(6-(cyclopropylmethoxy)pyridin-3-yl)-6-(methylsulfonyl)pyrazolo[1,5-a]pyrimidin-5-yl)-8-azabicyclo[3.2.1]octan-8-yl)(4H-1,2,4-triazol-3-yl)methanone] | > 10000 | > 10000
– | – | Nc1c(C2CC2)c([C@@H]2C[C@H]3CC[C@@H](C2)N3C(=O)c2nnc[nH]2)nc2c(-c3cnc4c(c3)OCc3cn[nH]c3-4)cnn12 [Compound 8.55] | 1000 to 10000 | 1000 to 10000
– | – | CC(=O)c1c([C@@H]2C[C@H]3CC[C@@H](C2)N3C(=O)c2nnc[nH]2)nc2c(-c3ccc(C#CCO)nc3)cnn2c1N [Compound 8.56, 1-(5-((1R,3s,5S)-8-(4H-1,2,4-triazole-3-carbonyl)-8-azabicyclo[3.2.1]octan-3-yl)-7-amino-3-(6-(3-hydroxyprop-1-ynyl)pyridin-3-yl)pyrazolo[1,5-a]pyrimidin-6-yl)ethanone] | 100 to 1000 | 100 to 1000
